In PMC10590383, “Repurposing conformational changes in ANL superfamily enzymes to rapidly generate biosensors for organic and amino acids” (Nature Communications, 2023) one finds EC50 data, which are given here for one molecule.

By EC50 is commonly meant the midpoint of the concentration-response curve.

Holding throughout (experiment): Fluorescence dose-response of purified binding-pocket-engineered sensors (0.75 uM) in 100 mM Tris-HCl pH 7.5, room temperature, 1 mM ATP, 2.5 mM MgCl2, excitation 460 or 480 nm, emission 510 nm; logistic five-parameter fit.
Assay type in all cases: biochemical
Holding throughout (details): n = 3

The target of one experiment is T1, GECFINDER-Leu2 (Aneurinibacillus migulanus, UniProt P0C061, A301G/I277L/T278L).
T1 construct: gene grsA
The procedure:
(§1) Fig. 4 Engineering ligand specificity of GrsA-PheA for generating […]s. a The selectivity-conferring code of Phe and Leu A domains. b–f Dose–response curve of purified […]s with increasing concentrations of ligands in 100 mM Tris-HCl buffer (pH=7.5). All data shown are means ± S.D. (n = 3 biologically independent samples). g A series of […] reactions was tested to show the […]’s specificity with 20 proteinogenic amino acids. The values on the heatmap represent the ΔF/F0 value normalized to each […]’s maximal ΔF/F0 value ((ΔF/F0)/maximal ΔF/F0). The concentrations of 20 amino acids were 100 μM. The color indicates the average value of three independent biological replicates after 15 min. All data shown are means ± S.D. (n = 3 biologically independent samples). Source data are provided as a Source data file.
(§2) The study conducted dose–response curve, substrate specificity, and fluorescent spectrum analyses in 100-mM Tris buffer (pH = 7.5), while pH stability experiments were performed in 100-mM Tris buffer at three different pH values (6.5, 7.5, and 8.5) at room temperature. […] protein at a concentration of 0.75 μM, various small molecule concentrations, 1 mM ATP, and 2.5 mM MgCl2 were used in the experiments. Fluorescent signals were detected using a Microplate Reader (Synergy H4, Bio Tek) at an excitation/emission wavelength of 460 nm/510 nm or 480 nm/510 nm. The dose-response curve was determined immediately after the addition of the analyte. The total duration of the measurement was 15 min, with readings taken at one-minute intervals. The dose-response curve was plotted using the fluorescence values obtained after achieving stability in the fluorescence signal. The dose-response curves were fitted using the logistic model LOGISTIC5 available in Origin 2021, which could provide a more adequate fit to asymmetric dose-response data[62],[63]. Excitation spectra were scanned from 300 to 540 nm with a step size of 5 nm, and the emission wavelength was set to 560 nm. Emission spectra were scanned from 470 to 700 nm with a step size of 5 nm, and the excitation wavelength was set to 450 nm. The thermal stability of […] was analyzed using the UNcle multifunctional protein stability analysis system. Measurements were performed in 20 mM MOPS buffer with 2 mM DTT at a sample concentration of 1 mg/mL. Absolute fluorescence quantum yields were measured using an absolute photoluminescence quantum yield spectrometer (FS5, Edinburgh).

For the next experiment, the target named is T2, GECFINDER-Leu3 (Aneurinibacillus migulanus, UniProt P0C061, A301G/S447N/T278L).
T2 construct: gene grsA
The procedure:
as §1, §2

In a further experiment the target is T3, GECFINDER-Leu4 (Aneurinibacillus migulanus, UniProt P0C061, A301G/I277L/S447N/T278L).
T3 construct: gene grsA
The procedure:
as §1, §2

Another experiment deals with T4, GECFINDER-Leu1 (Aneurinibacillus migulanus, UniProt P0C061, A301G/T278M).
T4 construct: gene grsA; GrsA-PheA-PCP
The procedure:
as §1, §2

The structures appear in SMILES notation.

T4 sequence (P0C061 1-617 T278M/A301G): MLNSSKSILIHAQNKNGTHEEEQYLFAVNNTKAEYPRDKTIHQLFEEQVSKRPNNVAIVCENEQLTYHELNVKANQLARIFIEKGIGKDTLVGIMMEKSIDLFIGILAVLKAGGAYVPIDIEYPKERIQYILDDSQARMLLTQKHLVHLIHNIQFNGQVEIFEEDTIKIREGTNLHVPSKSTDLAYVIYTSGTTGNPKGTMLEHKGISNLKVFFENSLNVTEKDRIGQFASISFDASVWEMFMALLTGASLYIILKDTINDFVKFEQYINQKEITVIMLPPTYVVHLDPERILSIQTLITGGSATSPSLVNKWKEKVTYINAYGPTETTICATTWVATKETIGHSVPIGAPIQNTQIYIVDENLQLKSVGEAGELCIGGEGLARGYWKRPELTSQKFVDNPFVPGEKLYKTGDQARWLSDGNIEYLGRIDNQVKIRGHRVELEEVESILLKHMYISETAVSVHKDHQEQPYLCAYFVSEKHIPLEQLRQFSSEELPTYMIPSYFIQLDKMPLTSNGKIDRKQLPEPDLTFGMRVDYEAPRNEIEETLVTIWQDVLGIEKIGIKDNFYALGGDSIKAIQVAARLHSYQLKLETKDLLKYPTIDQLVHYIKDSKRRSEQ
T1 sequence (P0C061 1-617 I277L/T278L/A301G): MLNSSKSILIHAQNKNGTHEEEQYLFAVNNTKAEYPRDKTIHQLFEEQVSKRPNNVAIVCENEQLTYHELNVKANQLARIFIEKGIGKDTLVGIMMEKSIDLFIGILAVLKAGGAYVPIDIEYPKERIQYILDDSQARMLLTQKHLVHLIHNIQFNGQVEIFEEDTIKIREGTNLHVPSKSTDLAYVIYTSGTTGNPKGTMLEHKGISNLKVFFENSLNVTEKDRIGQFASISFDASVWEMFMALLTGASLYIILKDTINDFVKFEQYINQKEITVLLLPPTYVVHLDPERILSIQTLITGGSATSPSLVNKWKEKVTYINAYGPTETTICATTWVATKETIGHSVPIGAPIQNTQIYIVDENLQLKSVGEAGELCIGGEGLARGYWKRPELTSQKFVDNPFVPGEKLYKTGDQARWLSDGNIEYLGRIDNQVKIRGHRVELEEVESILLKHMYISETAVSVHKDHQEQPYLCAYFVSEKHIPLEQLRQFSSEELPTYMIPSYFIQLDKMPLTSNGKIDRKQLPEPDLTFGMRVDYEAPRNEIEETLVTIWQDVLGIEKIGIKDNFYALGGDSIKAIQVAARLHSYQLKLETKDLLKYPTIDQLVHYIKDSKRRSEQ
T2 sequence (P0C061 1-617 T278L/A301G/S447N): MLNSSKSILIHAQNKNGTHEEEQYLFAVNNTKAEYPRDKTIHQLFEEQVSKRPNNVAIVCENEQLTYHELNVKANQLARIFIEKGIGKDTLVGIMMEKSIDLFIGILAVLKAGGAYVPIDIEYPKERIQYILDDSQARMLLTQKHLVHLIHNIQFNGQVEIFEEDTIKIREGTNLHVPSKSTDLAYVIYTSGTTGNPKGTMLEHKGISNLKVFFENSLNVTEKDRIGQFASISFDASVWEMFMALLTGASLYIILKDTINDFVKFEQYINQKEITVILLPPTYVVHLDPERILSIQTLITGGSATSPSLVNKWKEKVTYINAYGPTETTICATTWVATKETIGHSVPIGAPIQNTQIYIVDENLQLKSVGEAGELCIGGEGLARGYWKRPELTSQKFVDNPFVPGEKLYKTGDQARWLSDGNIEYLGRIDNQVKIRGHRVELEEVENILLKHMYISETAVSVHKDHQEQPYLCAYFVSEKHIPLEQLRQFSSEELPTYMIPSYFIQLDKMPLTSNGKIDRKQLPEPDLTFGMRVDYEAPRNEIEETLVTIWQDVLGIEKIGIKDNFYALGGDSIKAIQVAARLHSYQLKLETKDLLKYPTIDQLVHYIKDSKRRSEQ
T3 sequence (P0C061 1-617 I277L/T278L/A301G/S447N): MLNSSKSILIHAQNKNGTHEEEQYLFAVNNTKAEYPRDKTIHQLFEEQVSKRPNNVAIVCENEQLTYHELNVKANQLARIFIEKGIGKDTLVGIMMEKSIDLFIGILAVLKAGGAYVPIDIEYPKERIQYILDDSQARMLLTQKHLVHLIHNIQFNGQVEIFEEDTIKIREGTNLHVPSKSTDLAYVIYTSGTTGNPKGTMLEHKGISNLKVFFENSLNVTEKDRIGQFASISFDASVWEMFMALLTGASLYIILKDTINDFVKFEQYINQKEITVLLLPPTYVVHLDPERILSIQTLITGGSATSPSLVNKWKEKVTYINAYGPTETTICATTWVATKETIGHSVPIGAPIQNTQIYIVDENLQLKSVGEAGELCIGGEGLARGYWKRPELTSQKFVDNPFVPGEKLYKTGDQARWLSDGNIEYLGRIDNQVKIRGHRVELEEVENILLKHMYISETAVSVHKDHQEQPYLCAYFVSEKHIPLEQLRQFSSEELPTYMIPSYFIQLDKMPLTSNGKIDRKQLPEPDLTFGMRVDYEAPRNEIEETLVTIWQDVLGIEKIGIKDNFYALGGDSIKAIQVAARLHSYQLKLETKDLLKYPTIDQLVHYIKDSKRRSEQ

Consider `CC(C)C[C@H](N)C(=O)O` [Leu, leucine], for which the EC50 was 207 ± 37.2 µM at GECFINDER-Leu2, 200 ± 7.76 µM on GECFINDER-Leu3, 106 ± 24.5 µM at GECFINDER-Leu4 and 58.4 ± 24.8 µM on GECFINDER-Leu1.
